The record followed here is ChEMBL document CHEMBL1201862, “PubChem BioAssay data set” (2004).

Common to all, as to assay: NCI anticancer screen, dose series, 48 h
Experiment [1] deals with DU-145.
Experiment [2] deals with HCC 2998.
Experiment [3] relates to LOX IMVI.
In experiment [4] the test system is MDA-MB-231.
The subject of experiment [5] is MDA-MB-435.
Experiment [6] relates to MDA-N.
The subject of experiment [7] is Malme-3M.
Experiment [8] relates to OVCAR-4.
Experiment [9] deals with SF-539.
In experiment [10] the test system is SK-MEL-2.
Experiment [11] concerns SNB-78.
Experiment [12] has as its system T47D.
The test system of experiment [13] is U-251.
The subject of experiment [14] is UO-31.
The test system of experiment [15] is HCT-116.
For experiment [16], the system named is HCT-15.
The test system of experiment [17] is Hs-578T.
For experiment [18], the system named is MOLT-4.
For experiment [19], the system named is RPMI-8226.
For experiment [20], the system named is UACC-257.

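Assay format: 96-well plates, 48-hour exposure. GI50 marks 50% less growth.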 The source made the active and inactive calls. Cut-off read from the data, not from the text of the source: active = GI50 up to about 1.1 µM and inactive = higher.

With `COc1cc(Cc2nccc3cc(OC)c(OC)cc23)c(C(C)=O)cc1OC`, the GI50 in experiment [1] is > 100 µM (inactive); in experiment [2], 80.7 µM (inactive); in experiment [3], 23.6 µM (inactive); in [4], 78.5 µM (inactive); in experiment [5], 61 µM (inactive); in experiment [6] it was 28.2 µM (inactive). Moreover, the GI50 in [7] is 19.7 µM (inactive); in experiment [8] it was 6.71 µM (inactive); in [9] it was > 94.8 µM (inactive); in experiment [10] it was 226 µM (inactive); in experiment [11] it was 74.6 µM (inactive); in experiment [12], 2.2 µM (inactive). The GI50 in [13] is 2.54 µM (inactive); in experiment [14] it was > 139 µM (inactive).
In the case of `COc1cc(/C=C2\CCC/C(=C\c3ccc(O)c(OC)c3)C2=O)ccc1O` [CYCLOVALONE], the GI50 was 3.47 µM (inactive) in experiment [1]; 2.77 µM (inactive) in [2]; 2.07 µM (inactive) in experiment [15]; 2.34 µM in experiment [16]; 4.16 µM (inactive) in experiment [17]; 1.67 µM (inactive) in [3]. Moreover, the GI50 in experiment [4] was 5.96 µM (inactive); in experiment [5], 3.13 µM (inactive); in [6], 2.42 µM (inactive); in [18] it was 2.83 µM (inactive); in experiment [7], 2.17 µM (inactive); in experiment [8], 7.35 µM (inactive). Moreover, the GI50 in [19] is 1.2 µM (inactive); in experiment [9], 2.04 µM (inactive); in experiment [10], 3.56 µM (inactive); in experiment [11], 2.75 µM (inactive); in experiment [12] it was 3.29 µM (inactive); in experiment [13], 2.08 µM (inactive). The GI50 in experiment [20] was 5.01 µM (inactive); in experiment [14] it was 2.13 µM (inactive).
For `CCCCCCCCC(=O)NCCN(CCN)C(=O)CCCCCCCC`, the GI50 in [1] was 13.6 µM (inactive); in [2], 6.14 µM (inactive); in [15], 3.74 µM (inactive); in [16], 5.19 µM; in experiment [17] it was 8.38 µM (inactive); in experiment [3] it was 3.85 µM (inactive). Moreover, the GI50 in experiment [4] was 3.31 µM (inactive); in [5], 13.7 µM (inactive); in experiment [6] it was 5.6 µM (inactive); in [18] it was 3.78 µM (inactive); in experiment [7], 17.9 µM (inactive); in experiment [8], 8.17 µM (inactive). Besides, the GI50 was 2.49 µM (inactive) in experiment [19]; 5.7 µM (inactive) in [9]; 15.1 µM (inactive) in experiment [10]; 10.4 µM (inactive) in experiment [11]; 14.9 µM (inactive) in experiment [12]; 3.37 µM (inactive) in experiment [13]. In addition, the GI50 in [20] is 18.4 µM (inactive); in experiment [14], 12.7 µM (inactive).
Regarding `CCC1(O)C(=O)OCc2c1cc1n(c2=O)Cc2cc3cc4c(cc3nc2-1)OCO4` (configuration not stated), the GI50 was < 0.01 µM (active) in experiment [1]; 0.0233 µM (active) in experiment [2]; < 0.01 µM (active) in experiment [15]; 0.0306 µM in experiment [16]; 0.857 µM (active) in experiment [17]; < 0.01 µM (active) in experiment [3]. The GI50 in [4] is 0.346 µM (active); in experiment [5], < 0.0131 µM (active); in experiment [18] it was < 0.01 µM (active); in experiment [7], 0.0164 µM (active); in experiment [8], 0.0551 µM (active); in experiment [19] it was 0.0236 µM (active). In addition, the GI50 was 0.0316 µM (active) in experiment [9]; 0.127 µM (active) in experiment [10]; 3.37 µM (inactive) in [11]; < 0.01 µM (active) in [12]; < 0.01 µM (active) in experiment [13]; 0.0242 µM (active) in experiment [20]. Also, in experiment [14], the GI50 was < 0.0111 µM (active).
With `Clc1ccc2c(NCCCCCCNc3ccnc4cc(Cl)ccc34)ccnc2c1`, the GI50 was 6.19 µM (inactive) in experiment [1]; 1.67 µM (inactive) in [2]; 1.8 µM (inactive) in experiment [15]; 2.88 µM in experiment [16]; 3.27 µM (inactive) in experiment [17]; 1.74 µM (inactive) in experiment [3]. Besides, the GI50 in experiment [4] is 2.22 µM (inactive); in experiment [5], 6.04 µM (inactive); in [6] it was 2.46 µM (inactive); in [18], 2.45 µM (inactive); in [7] it was 12.8 µM (inactive); in [8], 2.54 µM (inactive). In addition, the GI50 was 2.13 µM (inactive) in experiment [19]; 1.87 µM (inactive) in [9]; 5.97 µM (inactive) in [10]; 1.86 µM (inactive) in experiment [11]; 2.08 µM (inactive) in experiment [12]; 2.45 µM (inactive) in experiment [13]. The GI50 in experiment [20] was 7.57 µM (inactive); in experiment [14], 4.83 µM (inactive).
Regarding `COc1ccccc1/C=C(\C#N)C(=O)c1ccccc1`, the GI50 in [2] is > 100 µM (inactive); in experiment [15], > 100 µM (inactive); in [16] it was above 100 µM; in [3] it was > 100 µM (inactive); in experiment [18], > 100 µM (inactive); in experiment [7] it was > 100 µM (inactive). The GI50 in experiment [8], in experiment [19], in experiment [9], in experiment [10], in experiment [11] and in experiment [13] was > 100 µM (inactive) in each case. Besides, the GI50 in [20] and in [14] was > 100 µM (inactive) in each case.
